# Tests used:
# pAkt (S473) = assay: pAkt(S473) in AML cell panel, short term treatment, flow cytometry; format: cell-based, human; details: 1 hour
# Method: (§1) Staining of Cells for Flow Cytometry, General Protocol: • Live cells were centrifuged at 300 G for 5 minutes, washed once with PBS and centrifuged again. Cells were then fixed in 4% PFA in PBS for 10 minutes at 37° C., and resuspended in PBS. Unless processed immediately, samples were at this point stored in PBS at 4° C. (up to three weeks) or at −80° C. (for long-term storage). If intracellular epitopes were stained, cells were permebealized in 90% MeOH for 30 minutes on ice. Unless processed immediately, samples were also be stored in 90% MeOH at −20° C. for up to two months. • Further staining procedure (permebealized or non-permebealized cells): • Cells were washed 1× in PBS and blocked in blocking buffer; either PBS+0.5% BSA or PBS+1:1000 Octagam (5 mg/ml) for 15 minutes at room temperature. Thereafter, cells were incubated with primary AB at the indicated dilutions in incubation buffer (IB, PBS+0.5% BSA) for 1 hour at room temperature. Cells were then washed 3× with IB and incubated with secondary AB (conjugated to a fluorescent flurophore) at 1:1000 dilution in IB for 30 minutes at room temperature. Finally, cells were washed 3× in IB and resuspended in PBS. Cells were analyzed immediately, or stored for up to 24 hours at 4° C. before analysis. • Analysis of cells was done on a BD LSR Fortessa or a BD C6 Accuri flow cytometer, and further processing was done using FlowJo v.7.6. • All incubation steps (but not storage) were done on a spinning wheel or gentle shaker.
# (§2) The diversity of AML cells and their responses was investigated using a panel of AML cell lines and assessing their responses after BGB324-treatment.
# (§3) When investigating phospho-markers, the cells were starved overnight in the appropriate growth medium containing 0.1% FBS, pre-treated with BGB324 at 0.5 and 1 μM for one hour, and stimulated with 10% FBS for 20 minutes (to induce phosphorylation, with BGB324 present). Cells were then fixed and stained for flow cytometric analyses.
# totPLCγ1 = assay: Total PLCγ1 in AML cell panel, long-term treatment, flow cytometry; format: cell-based, human
# Method: as §1, §2
# (§4) Long-term treatment was done in complete medium, without starvation. The responders were treated with 0.05, 0.1 or 0.3 μM BGB324, whereas the non-responders were treated with only a single dose of 2.5 μM BGB324. The cells were fixed after 24, 48 or 72 hours, and the samples were stored in 90% MeOH at −20° C. until all samples were harvested, and stained for flow at the same time.
# OCI-M1 cells = assay: IC50 of BGB324 by resazurin assay, OCI-M1; format: cell-based; details: Homo sapiens, OCI-M1 (non-responder)
# Source text: as §2
# totAxl = assay: Total Axl in AML cell panel, long-term treatment, flow cytometry; format: cell-based, human
# Method: as §1, §2, §4
# totErk = assay: Total Erk in AML cell panel, long-term treatment, flow cytometry; format: cell-based, human
# Method: as §1, §2, §4
# SLFN11 = SLFN11 in CD33-positive cells, MOLM13 systemic xenograft model, flow cytometry; format: in vivo, mice; details: bone marrows, 50 mg/kg for 4 days
# Method: (§5) Material from an in vivo MOLM13 systemic model was also evaluated by flow cytometry. Expression of the previously evaluated biomarkers was examined in cells isolated from bone marrows and spleens of animals with systemic AML disease (MOLM13, inoculated for 7 days prior to treatment) treated with BGB324 at 50 mg/kg for 4 days. The spleens analysed were from the same study that was analysed by microarray, as mentioned above. The bone marrows were from an identical study that was done at a later time point to get more material for flow analyses.
# (§6) Cells isolated from spleens and bone marrows were assessed for phosphorylation of Erk, PLCγ1 and Akt, and expression of PHGDH and SLFN11. The samples were also co-stained with CD33, and biomarker expression was only evaluated in CD33-positive cells.
# pErk [1] = assay: pErk in AML cell panel, short term treatment, flow cytometry; format: cell-based, human
# Method: as §1, §2, §3
# pPLCγ1 = pPLCγ1 in CD33-positive cells, MOLM13 systemic xenograft model, flow cytometry; format: in vivo, mice; details: 50 mg/kg for 4 days
# Method: as §5, §6
# Akt(S473) = assay: pAkt(S473) in blood of healthy volunteers treated ex vivo; format: cell-based, human; details: blood of two healthy volunteers, 1 μM, 30 minutes ex vivo; signal very low, disregarded as false
# Method: Staining of Blood for Flow Cytometry, General Protocol: • Human blood from healthy donors was collected in the presence of sodium citrate and mixed with 20 volumes of pre-warmed BD phosflow lyse/fix buffer (diluted to 1× in destilled water), followed by incubation in 37° C. water bath for 10 minutes. Cells were spun at 500 g for 8 minutes and washed once with PBS. • Cells were permebilized by adding 70% MeOH followed by 30 min incubation on ice. Unless processed immediately, samples were at this point stored in MeOH at −20° C. for up to 4 weeks. • Staining of permeabilized cells: • Cells were spun at 600 g, washed twice and resuspended in IB. Cells were aliquoted into volums corresponding to 100 ul collected blood (before dilution), and stained as described above (section two in “Staining of cells for flow cytometry, general protocol”). • All washing and incubation steps were done on a spinning wheel or gentle shaker.
# Blood samples from BGB324-treated individuals were not available, so BGB324-treatment was simulated by incubating fresh unfixed blood samples with 1 μM BGB324 for 30 minutes before fixation. Thereafter, samples were fixed, permebealized, and stained for flow with pAxl and pAkt antibodies to examine whether we could see a response to BGB324-treatment in these biomarkers (see FIG. 7). Phosphatase-treated cells were included as a negative staining control.
# pAxl (Y779) = assay: pAxl(Y779) in AML cell panel, short term treatment, flow cytometry; format: cell-based, human; details: 1 hour
# Method: as §1, §2, §3
# pErk [2] = assay: pErk in CD33-positive cells, MOLM13 systemic xenograft model, flow cytometry; format: in vivo, mice; details: 50 mg/kg for 4 days
# Method: as §5, §6
# PHGDH = PHGDH in CD33-positive cells, MOLM13 systemic xenograft model, flow cytometry; format: in vivo, mice; details: 50 mg/kg for 4 days
# Method: as §5, §6
compound,measurement,setting,value
"Nc1nc(Nc2ccc3c(c2)CC[C@@H](N2CCCC2)CC3)nn1-c1cc2c(nn1)-c1ccccc1CCC2 [BGB324, 1-(6,7-dihydro-5H-benzo[6,7]cyclohepta[1,2-c]pyridazin-3-yl)-N3-((7-(S)-pyrrolidin-1-yl)-6,7,8,9-tetrahydro-5H-benzo[7]annulene-2-yl)-1H-1,2,4-triazole-3,5-diamine]",Akt phosphorylation,"pAkt (S473); Kasumi, 0.5 and 1 μM",close to no effect
same,Akt phosphorylation,"pAkt (S473); MOLM13, 0.5 and 1 μM, 10% FBS stimulation",inhibits Akt phosphorylation
same,Akt phosphorylation,"pAkt (S473); Mv4-11, 0.5 and 1 μM, not significant at 0.5 μM",inhibits Akt phosphorylation
same,pAkt,"pAkt (S473); OCI-M1, 1 μM",slight and significant inhibition of pAkt
same,Akt phosphorylation,"pAkt (S473); OCI-M1, 0.5 and 1 μM",close to no effect
same,PLCγ1 expression,"totPLCγ1; Kasumi, 2.5 μM, 48 and 72 hours",significant increase of PLCγ1 expression
same,total protein expression of PLCγ1,"totPLCγ1; MOLM13, 0.3 μM, 24 hours",slight but significant reduction
same,total protein expression of PLCγ1,"totPLCγ1; Mv4-11, 0.3 μM, 24 and 72 hours",significant reduction
same,PLCγ1 expression,"totPLCγ1; OCI-AML5, 2.5 μM, only 72 hours",significant increase of PLCγ1 expression
same,IC50,OCI-M1 cells,1800 nM
same,Axl expression,"totAxl; Kasumi, 2.5 μM, 24-72 hours",goes significantly up
same,Axl expression,"totAxl; MOLM13, 0.3 μM, 24 hours",slight and significant reduction of Axl
same,Axl expression,"totAxl; Mv4-11, 0.3 μM, 24 hours and 72 hours",slight and significant reduction of Axl
same,Axl expression,"totAxl; OCI-AML5, 2.5 μM, 24-72 hours",goes significantly up
same,Erk expression,"totErk; Kasumi, 2.5 μM, significant at 48 and 72 hours",reduction of Erk expression
same,Erk expression,"totErk; MOLM13, 0.3 μM, 48 and 72 hours",normalized to control-levels
same,Erk expression,"totErk; MOLM13, 0.3 μM, 24 hours","slight, but significant, reduction of Erk expression"
same,Erk expression,"totErk; Mv4-11, 0.3 μM, 24, 48 and 72 hours",gradual reduction of Erk expression
same,Erk expression,"totErk; Mv4-11, 0.3 μM, 48 and 72 hours",significantly lower than control cells
same,Erk expression,"totErk; OCI-AML5, 2.5 μM, significant at 24 and 48 hours",reduction of Erk expression
same,SLFN11 expression,SLFN11,significant reduction
same,pErk,"pErk [1]; Kasumi, 1 hour",no significant differences in pErk
same,phosphorylation of Erk,"pErk [1]; MOLM13, all treatment doses, 1 hour",strong and significant reduction
same,phosphorylation of Erk,"pErk [1]; Mv4-11, all treatment doses, 1 hour",strong and significant reduction
same,pErk,"pErk [1]; OCI-M1, 1 hour",no significant differences in pErk
same,pPLCγ1,pPLCγ1; bone marrows,significant reduction
same,pPLCγ1,pPLCγ1; spleens,significant reduction
same,pAkt,Akt(S473),very slight reduction in pAkt
same,pAxl,"pAxl (Y779); Kasumi, 0.5 and 1 μM",no response to treatment
same,phosphorylation of Axl at Y779,"pAxl (Y779); MOLM13, 0.5 and 1 μM",significantly reduced
same,phosphorylation of Axl at Y779,"pAxl (Y779); Mv4-11, 0.5 and 1 μM",significantly reduced
same,pAxl,"pAxl (Y779); OCI-M1, highest treatment dose",slight (but significant) reduction of pAxl
same,pErk,pErk [2]; bone marrows,significant reduction
same,pErk,pErk [2]; spleens,significant reduction
same,PHGDH expression,PHGDH; bone marrows,significant reduction
same,PHGDH expression,PHGDH; spleens,significant reduction
